Columns and labels:
healthy adult subjects = experiment: Study 1 (SAD) safety and tolerability: TEAEs; format: in vivo
Description: (§1) Study 1 (B7921001; NCT02224651) was a 96-day, phase 1, within-cohort, randomized, double-blind, sponsor-open, placebo-substitution, five-period crossover, SAD study in healthy adult subjects (Fig. 1a). Subjects were sequentially enrolled into four cohorts of ten subjects each. Within each cohort, the subjects were randomized into a maximum of five periods. Within each period, eight subjects and two subjects were randomized to receive PF-06650833 and placebo, respectively. In this placebo-substitution design, all subjects within a cohort received one or more doses of PF-06650833 and/or placebo. Single oral doses of PF-06650833 IR formulations from 1 to 6000 mg, and MR formulations from 30 to 300 mg, were administered in fasted (overnight fast of ≥ 10 h) and/or fed (high-fat breakfast meal) states. Doses were escalated sequentially by period within each cohort (see Fig. 1a for final dosing scheme), based upon the evaluation of ≥ 48 h of safety and tolerability for all subjects and ≥ 8 h of PK data for at least six subjects receiving PF-06650833 and one subject receiving placebo. Dose escalation was to cease when either the limits of safety and/or tolerability were reached, the projected exposure at the subsequent dose exceeded the toxicokinetic limit (TK) established based on the no observable adverse effect level (NOAEL) in relevant animal studies, or a plateau in exposure was reached.
(§2) The effects of food on the plasma PK profile of the IR and MR formulations were explored in cohorts 1 and 3, respectively, by administering 30 mg doses of PF-06650833 in a fasted state and after a high-fat meal. A 1000-mg dose of the IR formulation was also tested in cohort 3 in an attempt to identify a maximum tolerated dose (MTD). Since TK limits were not reached with the IR formulation at doses up to 1000 mg, the IR doses were escalated to 2000 and 6000 mg with a high-fat meal in cohort 4 (Fig. 1a).
Safety assessments included incidence and severity of treatment-emergent AEs (TEAEs) and discontinuation due to TEAEs, incidence of treatment-emergent clinical laboratory abnormalities, and proportion of subjects meeting with pre-defined criteria for potential clinical concern in vital signs and electrocardiogram (ECG) parameters.
The safety analysis set was defined as all subjects who received at least one dose of study treatment, and data were summarized descriptively. The PK concentration analysis set was defined as all enrolled, treated subjects who had at least one concentration in at least one treatment period. The PK parameter analysis set was defined as all enrolled, treated subjects who had at least one of the PK parameters of interest in at least one treatment period. The PD analysis set was defined as all enrolled subjects who received at least one dose of PF-06650833 and had at least one PD parameter. PK/PD data were summarized descriptively.

clinical = details: human, in vivo; for AUC(0-t): AUClast; for Tmax: median (range); for Vd/F: Vz/F
Description: as §1, §2
For both studies, samples of blood (and urine in study 2) were taken for evaluation of PK/PD parameters (see Additional file 1: Supplemental Methods). PK samples were obtained at the nominal time relative to dosing (± 10%). Plasma and urine samples were analyzed using validated, sensitive, and specific liquid chromatography tandem mass spectrometric methods (at Pfizer Inc., Groton, CT, USA, for study 1 and at Worldwide Pharmacokinetics, Dynamics and Metabolism, Cambridge, MA, USA, for study 2). The lower limit of quantification for PF-06650833 in plasma was 0.0500 ng/mL. The lower limit of quantification for PF-06650833 in urine was 1.00 ng/mL. Serum samples were also analyzed for hsCRP, and plasma samples were analyzed for 4β-hydroxycholesterol and cholesterol.
PK parameters were calculated using non-compartmental analysis of concentration-time data. For study 1 only, data from cohort 1 (period 4 [IR 30 mg] versus period 5 [IR 30 mg + food]) and cohort 3 (period 2 [MR 30 mg] versus period 3 [MR 30 mg + food]) were used to estimate the effect of food intake. Cmax and AUC were calculated for each subject and treatment, with and without food, after which a within-subject difference could be found between fed (high-fat meal) and fasted doses. Analysis of covariance was used to model these within-subject differences and to calculate 95% confidence intervals (CIs) for the differences for each dose (IR 30 mg and MR 30 mg). For study 2 only, the amounts of PF-06650833 in urine and renal clearance were listed and summarized descriptively. As part of the routine safety laboratory monitoring, the presence of any atypical crystals in urine specimens was semi-quantitatively assessed microscopically by typical histopathologic methods and scored as numbers of crystals per high power field (hpf); higher abundance (moderate or many) was defined as ≥ 15/hpf. No formal interim analyses were conducted.
4 In both studies, subjects were assigned to dose groups according to a pre-defined
5 randomization schedule. Each subject was given a unique Electronic Data Capture […]

[1] = IR 2000 mg single dose, fed (high-fat), 8 evaluable

With `CC[C@@H]1[C@H](F)C(=O)N[C@@H]1COc1nccc2cc(C(N)=O)c(OC)cc12` [PF-06650833, 1-{[(2S,3S,4S)-3-Ethyl-4-fluoro-5-oxopyrrolidin-2-yl]methoxy}-7-methoxyisoquinoline-6-carboxamide] the “Infections and infestations: subjects with AE, all causalities (treatment-related)” value (healthy adult subjects; IR 1 mg single dose, fasted, 8 evaluable) was 1 (0), the “Infections and infestations: subjects with AE, all causalities (treatment-related)” value (healthy adult subjects; [1]) was 1 (0) and the “Upper respiratory tract infection: subjects with AE, all causalities (treatment-related)” value (healthy adult subjects; [1]) was 1 (0). For the same compound, the “Serious AEs or deaths” value (healthy adult subjects; all dose groups) was “No serious AEs or deaths”, the “Subjects with treatment-related TEAEs” value (healthy adult subjects; human, in vivo) was 4 and the “Total treatment-related TEAEs” value (healthy adult subjects; human, in vivo) was 10. The “Severity of TEAEs” value (healthy adult subjects; in vivo) was “mild or moderate”, the “Treatment-related TEAEs” value (healthy adult subjects; in vivo) was “No treatment-related TEAEs” and the Maximum tolerated dose (healthy adult subjects; single doses IR up to 6000 mg, MR up to 300 mg) was “not established”. The “Mean terminal half-life t½” value (clinical) was 9.4 to 11.7 h, the “CL/F, geometric mean (%CV)” value (clinical; 1 mg) was 194.3 (37) L/h and the AUC(0-inf) (clinical; 1 mg, AUCinf, geometric mean (%CV)) was 5.14 ng·h/mL. For the same compound, the AUC(0-t) (clinical; 1 mg, geometric mean (%CV)) was 4.92 ng·h/mL, the Cmax (clinical; 1 mg, geometric mean (%CV)) was 1.75 ng/mL and the MRT (clinical; 1 mg, mean ± SD) was 3.12 ± 0.525 h. The Tmax (clinical; 1 mg) was 1 h, the Vd/F (clinical; 1 mg, geometric mean (%CV)) was 517 L and the half-life (clinical; 1 mg, t½, mean ± SD) was 1.86 ± 0.24 h. The “CL/F, geometric mean (%CV)” value (clinical; 3 mg) was 173.1 (49) L/h, the AUC(0-inf) (clinical; 3 mg, AUCinf, geometric mean (%CV)) was 17.3 ng·h/mL and the AUC(0-t) (clinical; 3 mg, geometric mean (%CV)) was 17 ng·h/mL. The Cmax (clinical; 3 mg, geometric mean (%CV)) was 5.54 ng/mL, the MRT (clinical; 3 mg, mean ± SD) was 3.4 ± 0.622 h and the Tmax (clinical; 3 mg) was 0.525 h. The Vd/F (clinical; 3 mg, geometric mean (%CV)) was 567 L, the half-life (clinical; 3 mg, t½, mean ± SD) was 2.34 ± 0.67 h and the “CL/F, geometric mean (%CV)” value (clinical; 10 mg) was 121.0 (48) L/h. For the same compound, the AUC(0-inf) (clinical; 10 mg, AUCinf, geometric mean (%CV)) was 82.7 ng·h/mL, the AUC(0-t) (clinical; 10 mg, geometric mean (%CV)) was 81.9 ng·h/mL and the Cmax (clinical; 10 mg, geometric mean (%CV)) was 22.6 ng/mL. It also gave an MRT (clinical; 10 mg, mean ± SD) of 4.31 ± 0.787 h, a Tmax (clinical; 10 mg) of 1 h and a Vd/F (clinical; 10 mg, geometric mean (%CV)) of 618 L. The half-life (clinical; 10 mg, t½, mean ± SD) was 3.54 ± 0.139 h, the “AUCinf (food-effect analysis)” value (clinical; 30 mg) was 211.3 ng·h/mL and the “AUCinf, geometric mean (%CV)” value (clinical; 30 mg) was 206.4 (29) ng•h/mL. The “AUClast, geometric mean (%CV)” value (clinical; 30 mg) was 203.7 (29) ng•h/mL, the AUC(0-inf) (clinical; 30 mg, AUCinf (food-effect analysis)) was 261 ng·h/mL and the AUC(0-inf) (clinical; 30 mg, AUCinf, geometric mean (%CV)) was 263 ng·h/mL. The AUC(0-t) (clinical; 30 mg, geometric mean (%CV)) was 249 ng·h/mL, the “AUCinf, geometric mean (%CV)” value (clinical; 100 mg) was 646.4 (48) ng•h/mL and the “AUClast, geometric mean (%CV)” value (clinical; 100 mg) was 549.4 (38) ng•h/mL. The “MRT, mean ± SD” value (clinical; 100 mg) was 11.2 ± 4.81 h, the “t½, mean ± SD” value (clinical; 100 mg) was 15.0 ± 5.22 h and the AUC(0-inf) (clinical; 100 mg, AUCinf, geometric mean (%CV)) was 839 ng·h/mL. The AUC(0-t) (clinical; 100 mg, geometric mean (%CV)) was 762 ng·h/mL, the MRT (clinical; 100 mg, mean ± SD) was 19.3 ± 5.73 h and the half-life (clinical; 100 mg, t½, mean ± SD) was 9.35 ± 3.62 h. The “AUCinf, geometric mean (%CV)” value (clinical; 300 mg) was 1477 (71) ng•h/mL, the “AUClast, geometric mean (%CV)” value (clinical; 300 mg) was 1436 (57) ng•h/mL and the “Tmax, median (range)” value (clinical; 300 mg) was 2 (0.500–2.00) h. For the same compound, the “Vz/F, geometric mean (%CV)” value (clinical; 300 mg) was 5310 (69) L, the “t½, mean ± SD” value (clinical; 300 mg) was 19.9 ± 9.54 h and the AUC(0-inf) (clinical; 300 mg, AUCinf, geometric mean (%CV)) was 2040 ng·h/mL. The AUC(0-t) (clinical; 300 mg, geometric mean (%CV)) was 1970 ng·h/mL, the Tmax (clinical; 300 mg) was 4 h and the Vd/F (clinical; 300 mg, geometric mean (%CV)) was 6820 L. The half-life (clinical; 300 mg, t½, mean ± SD) was 38.8 ± 21.1 h, the “CL/F, geometric mean (%CV)” value (clinical; 1000 mg) was 411.4 (40) L/h and the AUC(0-inf) (clinical; 1000 mg, AUCinf, geometric mean (%CV)) was 2430 ng·h/mL. The AUC(0-t) (clinical; 1000 mg, geometric mean (%CV)) was 2270 ng·h/mL, the Cmax (clinical; 1000 mg, geometric mean (%CV)) was 309 ng/mL and the MRT (clinical; 1000 mg, mean ± SD) was 18.7 ± 4.37 h. It also gave a Tmax (clinical; 1000 mg) of 0.75 h, a Vd/F (clinical; 1000 mg, geometric mean (%CV)) of 14600 L and a half-life (clinical; 1000 mg, t½, mean ± SD) of 44.9 ± 69.6 h. For the same compound, the half-life (clinical; Mean terminal half-life t½) was 10.2 to 15 h.

From PMC6896740, “Safety, tolerability, pharmacokinetics, and pharmacodynamics of PF-06650833, a selective interleukin-1 receptor-associated kinase 4 (IRAK4) inhibitor, in single and multiple ascending dose randomized phase 1 studies in healthy subjects” (Arthritis Research & Therapy, 2019)
